PubChem BioAssay AID1996
Values after ≈ are worked out from the molar mass of the structure shown.

Conditions: buffer; pH 7.4; 200.0 µM
Work on `COCc1cc(C)nc2oc(C(=O)c3ccccc3)c(N)c12` yielded a solubility kinetic of 8.4 µg/mL (≈ 28.3 µM).
Work on `Cc1ccc(NC(=O)Nc2cccc3ccccc23)cc1` yielded a solubility kinetic of less than 0.3 µg/mL.
In the case of `O=C(COC(=O)/C=C/c1ccccc1)NCCc1ccc(F)cc1`, the solubility kinetic is reported as 3.5 µg/mL (≈ 10.7 µM).
Compound `Cc1cc(=O)n(Cc2ccccc2)c(O)c1C#N` has a solubility kinetic of 32.2 µg/mL (≈ 134 µM).
For `COCCCNC(=S)Nc1cc(C)c(C)cc1C`, the solubility kinetic was greater than 40 µg/mL.
Work on `CCc1ccc2c(CN3CCN(S(=O)(=O)c4ccccc4F)CC3)cc(=O)oc2c1` yielded a solubility kinetic of 3.4 µg/mL (≈ 7.9 µM).
In the case of `CCOc1ccccc1NC(=O)Nc1cccc(NC(C)=O)c1`, the solubility kinetic is reported as greater than 47 µg/mL.
`Cc1ccc(S(=O)(=O)CC(=O)N2CC(C)OC(C)C2)cc1` (stereo not given) gave a solubility kinetic greater than 46.7 µg/mL.
In the case of `O=C(CN1C(=O)c2ccccc2S1(=O)=O)NC1CCCCC1`, the solubility kinetic is reported as greater than 48.4 µg/mL.
`O=C(Nc1cccc(S(=O)(=O)N2CCCC2)c1)c1ccncc1` gave a solubility kinetic of 46.9 µg/mL (≈ 142 µM).
With `Cc1c(C)n(-c2ccc(Cl)cc2)c2ncnc(N)c12` the solubility kinetic was 7.4 µg/mL (≈ 27.1 µM).
With `COc1cc(NC(=O)CSCc2ccccc2)c(C(=O)O)cc1OC` the solubility kinetic was 52.6 µg/mL (≈ 146 µM).
In the case of `CCOc1ncccc1C(=O)NCCc1ccc(OC)cc1`, the solubility kinetic is reported as greater than 45.1 µg/mL.
With `O=C(O)CCSc1ncnc2sc(-c3ccccc3)cc12` the solubility kinetic was greater than 47.5 µg/mL.
`Cn1ccnc1C(=O)c1ccc(N)cc1` showed a solubility kinetic greater than 30.2 µg/mL.
`O=C(NCc1cccnc1)Nc1cc(Cl)cc(Cl)c1` showed a solubility kinetic of 15.2 µg/mL (≈ 51.3 µM).
For `O=C(NCC(=O)N1CC=C(c2ccccc2)CC1)c1ccco1`, the solubility kinetic was greater than 46.6 µg/mL.
For `N#C/C(=C\c1ccncc1)c1ccc(NC(N)=O)cc1`, the solubility kinetic was 13.8 µg/mL (≈ 52.2 µM).
Compound `Cc1ccc(S(=O)(=O)NC(=O)Nc2ccc(F)c(F)c2)cc1` has a solubility kinetic of 44.1 µg/mL (≈ 135 µM).
`NS(=O)(=O)c1cccc(NC(=O)COC(=O)CCC(=O)c2cccs2)c1` showed a solubility kinetic greater than 59.5 µg/mL.
In the case of `O=C(NCCc1ccc(Cl)cc1)c1cnccn1`, the solubility kinetic is reported as greater than 39.3 µg/mL.
With `COc1ccc(OCCC(=O)OCC(=O)c2ccc[nH]2)cc1` the solubility kinetic was greater than 45.5 µg/mL.
Compound `CC1CCCN(C(=O)c2cc(-c3cccs3)nc3ccccc23)C1` (stereo not given) has a solubility kinetic of 17.2 µg/mL (≈ 51.1 µM).
In the case of `CC(C)c1cccc(C(C)C)c1NC(=O)CN1CCCC1`, the solubility kinetic is reported as greater than 43.3 µg/mL.
In the case of `Clc1ccc2oc(SCc3cccnc3)nc2c1`, the solubility kinetic is reported as 3.5 µg/mL (≈ 12.6 µM).
`c1ccc(CN2CCN(c3nc4ccccc4s3)CC2)cc1` gave a solubility kinetic of 1 µg/mL (≈ 3.23 µM).
Work on `CCN(CC)C(=O)c1cccc2c1-c1ccccc1C2=O` yielded a solubility kinetic of 41.5 µg/mL (≈ 149 µM).
`N#CC1(NC(=O)CSc2ccccn2)CCCCC1` gave a solubility kinetic greater than 41.3 µg/mL.
In the case of `COc1ccc(S(=O)(=O)n2ccnc2C)c(C)c1C`, the solubility kinetic is reported as greater than 42.1 µg/mL.
Compound `CN(C(=S)NC(=O)C1CC1)c1ccc(O)cc1` has a solubility kinetic greater than 37.5 µg/mL.
In the case of `COC(=O)Cn1cc([N+](=O)[O-])nc1C`, the solubility kinetic is reported as greater than 29.9 µg/mL.
`O=C(O/N=C1\CCCc2ccccc21)C1CC1` showed a solubility kinetic of 28.3 µg/mL (≈ 123 µM).
For `COc1cc([N+](=O)[O-])ccc1NC(=O)CN1CCc2cc(OC)c(OC)cc2C1`, the solubility kinetic was 34.1 µg/mL (≈ 84.9 µM).
In the case of `CCN1CCN(C(=O)c2cc3ccc(OC)cc3[nH]2)CC1`, the solubility kinetic is reported as greater than 43.1 µg/mL.
With `NC(=Nc1ccccc1)Nc1ccccc1` the solubility kinetic was 29.5 µg/mL (≈ 140 µM).
`CC12CCC(C(=O)NCc3ccc(F)cc3)(OC1=O)C2(C)C` (stereo not given) showed a solubility kinetic of 44.2 µg/mL (≈ 145 µM).
Work on `COc1cc(C=O)ccc1OC(=O)c1cccnc1` yielded a solubility kinetic of 33.7 µg/mL (≈ 131 µM).
`COc1ccc(C2(C)NC(=O)N(CC(=O)NCC(=O)Nc3ccc(F)c(F)c3F)C2=O)cc1OC` (stereo not given) gave a solubility kinetic of 0.5 µg/mL (≈ 1.01 µM).
In the case of `CCc1ccc(N2C(=O)CN(Cc3sccc3C)C2=S)cc1`, the solubility kinetic is reported as less than 0.4 µg/mL.
For `CCOC(=O)COn1c(=O)c(-c2ccc(OC)cc2)[n+]([O-])c2ccccc21`, the solubility kinetic was 42 µg/mL (≈ 113 µM).
`COC(=O)c1ccc(NC(=O)C2CC3CCC2C3)cc1` (stereo not given) showed a solubility kinetic of 8.1 µg/mL (≈ 29.6 µM).
Work on `CCOc1ccc(S(=O)(=O)/N=C(/Nc2ccc(C)c(S(=O)(=O)N3CCOCC3)c2)c2ccccc2)cc1` yielded a solubility kinetic of 7.9 µg/mL (≈ 14.5 µM).
Work on `Cc1cc(NC(=O)COC(=O)c2ccccc2Cl)no1` yielded a solubility kinetic of 16.3 µg/mL (≈ 55.3 µM).
In the case of `COc1cc(OC)cc(C(=O)N[C@H](C(=O)OCC(=O)Nc2ccc3c(c2)OCO3)C(C)C)c1`, the solubility kinetic is reported as 21.2 µg/mL (≈ 46.2 µM).
For `CC(C)N(Cc1ccccc1)C(=S)Nc1cccnc1`, the solubility kinetic was greater than 42.8 µg/mL.
Work on `CCC(C)NC(=O)c1ccc(C(=O)c2ccccc2)cc1` (stereo not given) yielded a solubility kinetic of 41.6 µg/mL (≈ 148 µM).
With `CCN(CC)c1nc(N)n(CCSC(=S)N(C)C)c(=O)n1` the solubility kinetic was 45.1 µg/mL (≈ 136 µM).
`O=C1/C(=C/c2ccccn2)SC(=S)N1c1cccc(O)c1` gave a solubility kinetic of 0.4 µg/mL (≈ 1.27 µM).
For `COCc1c(C(=O)N2CCN(c3ccccc3C)CC2)oc2ccccc12`, the solubility kinetic was 9.2 µg/mL (≈ 25.2 µM).
Compound `O=c1c2[nH]c3cccc(Cl)c3c2ncn1CC1CCCO1` (stereo not given) has a solubility kinetic of 7.4 µg/mL (≈ 24.4 µM).
`CCOC(=O)/C(=C/c1ccc(OC(=O)c2ccncc2)cc1)C(C)=O` showed a solubility kinetic of 41.8 µg/mL (≈ 123 µM).
For `Cc1ccc2c(c1)C(c1ccccc1)=NCC(=O)N2C`, the solubility kinetic was greater than 39.6 µg/mL.
`O=C(NCc1ccccc1F)C(c1ccccc1)c1ccccc1` showed a solubility kinetic of 0.9 µg/mL (≈ 2.82 µM).
`CCOc1ccccc1CNCCNCC(C)O.Cl` (stereo not given) gave a solubility kinetic greater than 48.8 µg/mL.
Compound `C[N+](C)(C)CCOC(=O)CBr.[Br-]` has a solubility kinetic greater than 45.8 µg/mL.
With `CC1CCN(c2ccccc2NC(=O)c2ccc([N+](=O)[O-])o2)CC1` the solubility kinetic was 0.5 µg/mL (≈ 1.52 µM).
`O=c1[nH]cnc2ccc([N+](=O)[O-])cc12` gave a solubility kinetic greater than 28.7 µg/mL.
`Cc1ccc(NC(=O)c2cc3c(=O)oc4ccc(C)cc4c3s2)nc1` showed a solubility kinetic of less than 0.4 µg/mL.
`CC(C)[C@H](NS(=O)(=O)c1cccc(C(F)(F)F)c1)C(=O)OCC(=O)NC(=O)NCc1ccco1` gave a solubility kinetic of 13.4 µg/mL (≈ 26.5 µM).
Compound `Clc1ccc2nc(-c3ccccc3)nc(C(Cl)Cl)c2c1` has a solubility kinetic of less than 0.3 µg/mL.
